Laboratory results published in US9856264B2, “Isoquinolinesulfonyl derivative as RHO kinase inhibitor” (MEDSHINE DISCOVERY INC., priority 2014, dated 2018).

The compounds below were run against ROCK kinase (assay: In vitro ROCK kinase inhibition activity evaluation (33P-ATP filter-binding)). Details: 1 nM ROCK kinase, 20 μM Long S6 Kinase substrate peptide, 2 h room temperature.
Format: biochemical
Parameters: key to ROCK inhibition activity: 1 μM ≦ + < 5 μM; 0.1 μM ≦ ++ < 1 μM; +++ < 0.1 μM; −− N/A
Description: Biological Activity Experiment: In Vitro ROCK Kinase Inhibition Activity Evaluation
Experimental Objective: Test ROCK Inhibition IC50 Value of Invented Compounds
Buffer solution: 20 mM Hepes (pH 7.5), 10 mM MgCl2, 1 mM EGTA, 0.02% Brij35, 0.02 mg/ml BSA, 0.1 mM Na3VO4, 2 mM DTT, 1% DMSO
To a freshly prepared buffer solution was added ROCK substrate Long S6 Kinase substrate peptide, with concentration at 20 μM. 1 nM ROCK kinase was then added, and well stirred. A series of DMSO solution (starting from 10 μM, dilution factor 3) of testing article was added using Echo550. The mixture was incubated for 20 min at room temperature, then was added ^33P-ATP (radioactive intensity 10 μCi/μL) to initiate reaction and further reacted for 2 h at room temperature. The mixture was filtered through P81 ion exchange paper (Whatman #3698-915), and washed by 0.75% phosphoric acid. The intensity of radiation was measured by Filter-Binding method.
The inhibition activity of the testing articles were measured by comparing the residue kinase activity to blank substrate (pure DMSO). Using Prism software ((GraphPad Software, San Diego Calif., USA) to calculate IC50 and curve.

| Structure (SMILES) | IC50 | ROCK inhibition activity |
| --- | --- | --- |
| O=S(=O)(c1cccc2cncc(F)c12)N1C[C@H]2CNC[C@H]2C1 [Example 29, 4-fluoro-5-((hexahydropyrrolo[3,4-c]pyrrol-2(1H)-yl)sulfonyl)isoquinoline] | 100 to 1000 nM |  |
| O=S(=O)(c1cccc2cncc(F)c12)N1CC2CCCNC2C1 (stereo not shown) [Example 30, 4-fluoro-5-((hexahydro-1H-pyrrolo[3,4-b]pyridin-6(2H)-yl)sulfonyl)isoquinoline] | 100 to 1000 nM |  |
| O=S(=O)(c1cccc2cncc(C(F)F)c12)N1C[C@H]2CNC[C@H]2C1 [Example 35, 4-(difluoromethyl)-5-((hexahydropyrrolo[3,4-c]pyrrol-2(1H)-yl)sulfonyl)isoquinoline] |  | −− |
| O=S(=O)(c1cccc2cncc(C(F)F)c12)N1CC2CCNCC2C1 (stereo not shown) [Example 36, 4-(difluoromethyl)-5-((hexahydro-1H-pyrrolo[3,4-c]pyridin-2(3H)-yl)sulfonyl)isoquinoline] |  | −− |
| Cc1cncc2cccc(S(=O)(=O)N3C[C@@H]4CCN[C@@H]4C3)c12 [Example 38, 5-((hexahydropyrrolo[3,4-d]pyrrol-5 (1H)-yl)sulfonyl)-4-methylisoquinoline] | < 100 nM |  |
| Cc1cncc2cccc(S(=O)(=O)N3CCC4NCCCC43)c12 (stereo not shown) [Example 42, 4-methyl-5-((octahydro-1H-pyrrolo[3,2-b]pyridin-1-yl)sulfonyl)isoquinoline] | < 100 nM |  |
| Cc1cncc2cccc(S(=O)(=O)N3C[C@H]4CNC[C@H]4C3)c12 [Example 43, 5-((hexahydropyrrolo[3,4-c]pyrrol-2(1H)-yl)sulfonyl)-4-methylisoquinoline] | < 100 nM |  |
| Cc1cncc2cccc(S(=O)(=O)N3CC4CCNCC4C3)c12 (stereo not shown) [Example 44, 5-((hexahydro-1H-pyrrolo[3,4-c]pyridin-2(3H)-yl)sulfonyl)-4-methylisoquinoline] | < 100 nM |  |
| Cc1cncc2cccc(S(=O)(=O)N3CCC4NCCCC4C3)c12 (stereo not shown) [Example 45, 6-((4-methylisoquinolin-5-yl)sulfonyl)decahydro-1,6-naphthyridine] | 1000 to 5000 nM |  |
| COc1cncc2cccc(S(=O)(=O)N3CCC4NCCCC43)c12 (stereo not shown) [Example 51, 4-methoxy-5-((octahydro-1H-pyrrolo[3,2-b]pyridin-1-yl)sulfonyl)isoquinoline] | 1000 to 5000 nM |  |
| COc1cncc2cccc(S(=O)(=O)N3C[C@H]4CNC[C@H]4C3)c12 [Example 52, 5-((hexahydropyrrolo[3,4-c]pyrrol-2(1H)-yl)sulfonyl)-4-methoxyisoquinoline] | 1000 to 5000 nM |  |
| COc1cncc2cccc(S(=O)(=O)N3CC4CCNCC4C3)c12 (stereo not shown) [Example 53, 5-((hexahydro-1H-pyrrolo[3,4-c]pyridin-2(3H)-yl)sulfonyl)-4-methoxyisoquinoline] | 1000 to 5000 nM |  |
| COc1cncc2cccc(S(=O)(=O)N3CCC4NCCCC4C3)c12 (stereo not shown) [Example 54, 6-((4-methoxyisoquinolin-5-yl)sulfonyl)decahydro-1,6-naphthyridine] | 1000 to 5000 nM |  |
| NC12CCC1CN(S(=O)(=O)c1cccc3cnccc13)C2 (stereo not shown) [Example 55, 3-(isoquinolin-5-ylsulfonyl)-3-azabicyclo[3.2.0]heptan-1-amine] | 1000 to 5000 nM |  |
| NC12CC1CN(S(=O)(=O)c1cccc3cnccc13)C2 (stereo not shown) [Example 56, 3-(isoquinolin-5-ylsulfonyl)-3-azabicyclo[3.1.0]hexan-1-amine] | 100 to 1000 nM |  |
| CCNC12CC1CN(S(=O)(=O)c1cccc3cnccc13)C2 (stereo not shown) [Example 57, N-ethyl-3-(isoquinolin-5-ylsulfonyl)-3-azabicyclo[3.1.0]hexan-1-amine] | 1000 to 5000 nM |  |
